“Also recorded” adds a separate entry of the source. Where two headings read alike, the source gives them in different places.

As a reminder, the EC50 is the concentration giving half of the maximal effect. As a reminder, the CC50 is the concentration at which the toxic effect on the cells reaches its halfway point.

For series [1], the system named is Schistosoma mansoni. Put plainly: In vitro antischistosomal assay on adult schistosomes (parasite viability by microscope). It counts as cell-based, Schistosoma mansoni (BH strain). Conditions: for EC50: Schistosoma mansoni. As to the method: The in vitro antischistosomal potential of compounds 1–5 was evaluated at various concentrations on S. mansoni (male and female) to determine their effective concentrations at 50% (EC50). Praziquantel (PZQ) was employed as a positive control, while vehicle-treated parasites (0.5% DMSO) were a negative control. […] The S. mansoni (BH strain) life cycle was sustained by passage through Biomphalaria glabrata snails and Swiss mice at the Research Center on Neglected Diseases (Guarulhos University, SP, Brazil). Vero cells from the American Type Culture Collection (ATCC) were cultured in Dulbecco’s modified Eagle medium (DMEM) supplemented with 10% heat-inactivated fetal calf serum and 2 mM L-glutamine (Vitrocell, Campinas, SP, Brazil). C. elegans (strain N2) was maintained at 22 °C on nematode growth medium (NGM) agar seeded with Escherichia coli strain OP50, following standard protocols.[26] The in vitro antischistosomal assay followed established procedures.[27] Adult schistosomes from infected mice were exposed to test samples (0.78–50 μM) in RPMI 1640 medium supplemented with 5% heat-inactivated fetal calf serum, penicillin (100 U/mL), and streptomycin (100 μg/mL) in a 24-well culture plate. Test samples, including PZQ, were dissolved in DMSO and tested in triplicate with experiments repeated three times. A BEL Engineering microscope assessed parasite viability at 24, 48, and 72 h. Statistical analysis was conducted using GraphPad Prism 8.0. CE50 and CC50 values were determined from sigmoid dose–response curves. Selectivity indices were calculated by dividing CC50 values obtained on Vero cells by […].[30]

Series [2] can be described thus: Cytotoxicity on Vero cells (MTT). It counts as cell-based. Conditions: chlorocebus sabaeus; Vero cells, 72 h, MTT, 6.25–200 μM tested; read-out: Vero cell CC50. On the procedure:
(§1) The S. mansoni (BH strain) life cycle was sustained by passage through Biomphalaria glabrata snails and Swiss mice at the Research Center on Neglected Diseases (Guarulhos University, SP, Brazil). Vero cells from the American Type Culture Collection (ATCC) were cultured in Dulbecco’s modified Eagle medium (DMEM) supplemented with 10% heat-inactivated fetal calf serum and 2 mM L-glutamine (Vitrocell, Campinas, SP, Brazil). C. elegans (strain N2) was maintained at 22 °C on nematode growth medium (NGM) agar seeded with Escherichia coli strain OP50, following standard protocols.[26]
(§2) Cytotoxicity was assessed using a previously established method.[20],[28] Cells were plated in 96-well plates and treated with test compounds (6.25–200 μM) and doxorubicin (DXR) at 10 μM as a positive control for 72 h. Cell viability was determined using an MTT solution, and absorbance was measured at 595 nm using a microplate spectrophotometer. The assay was performed in triplicate, and the results are expressed as a percentage of the control.
(§3) Statistical analysis was conducted using GraphPad Prism 8.0. CE50 and CC50 values were determined from sigmoid dose–response curves. Selectivity indices were calculated by dividing CC50 values obtained on Vero cells by CC50 values determined on S. mansoni.[30]

In series [3] the test system is Vero cells. Put plainly: Cytotoxicity on Vero cells (MTT). It counts as cell-based. The conditions noted are these: for SI (male worms), selectivity index SI = CC50/EC50: Vero CC50 / S. mansoni male EC50. As to the method:
as §1, §2, §3

The test system of series [4] is Caenorhabditis elegans. Put plainly: Toxicity assay with C. elegans (viability by mobility and form). It counts as in vivo, Caenorhabditis elegans (strain N2). Conditions: L4-stage worms, 24 h, 25 to 200 μM. On the procedure:
as §1
Toxicity assays with C. elegans were performed as previously described.[29] For 24 h, 26 L4-stage worms were exposed to samples at concentrations ranging from 25 to 200 μM, including levamisole (LVZ) at 10 μM as the positive control. Viability was assessed based on mobility and form using an inverted microscope, with experiments repeated three times.

[5] abbreviates: adult female worms, in vitro, 72 h, 0.78–50 μM tested, read-out: S. mansoni female EC50.
Where [6] appears, read: adult male worms, in vitro, 72 h, 0.78–50 μM tested, read-out: S. mansoni male EC50.
Setting [7] is: adult schistosomes, ex vivo / in vitro, read-out: EC50 against S. mansoni (sex not specified).

In the case of `O=C(O)/C=C/CCCCCCC(=O)O` [Compound 4, (2E)-dec-2-ene-1,10-dioic acid], the EC50 in series [1] (setting [5]), in series [1] (setting [6]) and in series [1] (setting [7]) was above 50 µM throughout.
On to `CCCCCCCC/C=C\[C@@H](O)[C@H](O)CCCCCC(=O)O` (stereo in doubt) [Compound 3, (7R,8R,9Z)-7,8-dihydroxyoctadec-9-enoic acid], for which the EC50 in series [1] (setting [5]) is 32.6 ± 5.1 µM; in series [1] (setting [6]) it was 8.3 ± 2.4 µM; in series [1] (setting [7]), below 10 µM. Also, in series [2], the CC50 at 72 h was above 200 µM. In series [3] (Vero CC50 / S. mansoni female EC50), the “SI (female worms), selectivity index SI = CC50/EC50” value is listed as above 6.13. In series [3], the “SI (male worms), selectivity index SI = CC50/EC50” value is recorded as above 24.09. For the same compound, the “Toxicity to mammalian cells (in words)” value in series [3] (Vero cells, 72 h) is “no toxicity”. Also, the “Toxicity to C. elegans (in words)” value in series [4] is recorded as “did not show toxicity; also recorded: no toxicity”.
With `CCCCCC(=O)/C=C/C=C/[C@H](O)[C@@H](O)CCCCCC(=O)O` [Compound 2, (7S,8S,9E,11E)-7,8-dihydroxy-13-oxo-octadeca-9,11-dienoic acid], the EC50 in series [1] (setting [5]), in series [1] (setting [6]) and in series [1] (setting [7]) was above 50 µM throughout.
As for `O=C(C1CCCCC1)N1CC(=O)N2CCc3ccccc3C2C1` (centres unmarked) [PZQ, Praziquantel, reference compound], the EC50 is 1.2 ± 0.1 µM in series [1] (setting [5]), 0.9 ± 0.1 µM in series [1] (setting [6]) and below 2 µM in series [1] (setting [7]). Further, the CC50 at 72 h in series [2] is above 200 µM. Further, in series [3], the “SI (male worms), selectivity index SI = CC50/EC50” value was above 250.
Consider `CCCCC[C@H](O)[C@@H](O)/C=C/C=C/C(=O)CCCCCC(=O)O` [Compound 1, (8E,10E,12S,13S)-12,13-dihydroxy-7-oxo-octadeca-8,10-dienoic acid], for which the EC50 in series [1] (setting [5]), in series [1] (setting [6]) and in series [1] (setting [7]) was above 50 µM in each case.
With `CC1(C)CCC(=O)[C@@]23C(=O)OC4OCC(=CC[C@@H]12)[C@H]43` (some centres unmarked) [Compound 5, marasmeno-1,15-dione], the 50% effective concentration (EC50) in series [1] (setting [5]), in series [1] (setting [6]) and in series [1] (setting [7]) was above 50 µM in each case. For the same compound, the “Antiparasitic activity against S. mansoni (in words)” value in series [1] (adult schistosomes, in vitro, up to 50 μM) is “no antiparasitic activity was detected”.

Source of the values: PMC11877520, “Anthelmintic Potential of Conjugated Long-Chain Fatty Acids Isolated from the Bioluminescent Mushroom Neonothopanus gardneri” (Journal of Natural Products, 2025).
